Measured values reported in patent US20100041972A1, “APPARATUS AND METHODS” (priority 2006, published 2010).

Columns and labels:
rat dorsal raphe = assay: MEA recording of neuronal firing in rat dorsal raphe slice; type: cell-based; conditions: channels 34, 43, 48 and 57; heterogeneity noted
Method: Wistar rats or mice obtained from Charles River were sacrificed by cervical dislocation. The brain was rapidly removed and a block of tissue containing the relevant area was prepared. Brain tissue was glued onto a glass slide using cyanoacryalate glue (Permabond C2). The block was supported by a similar sized block of agar (3% in NaCl, 126 mM) glued immediately behind the brain block. Coronal slices (300 μm thick) of the relevant brain slice were cut from the brain using a Vibratome™ (Oxford Instruments, supplied by Intracel, Unit 4, Station Road, Shepreth, Royston. Herts. UK). The slices were transferred to artificial cerebrospinal fluid (ACSF) which contained (in mM): NaCl 126, KCl 5, NaH2PO4 1.24, CaCl2 2.4, MgCl2 1.3, NaHCO3 26, glucose 10, at pH 7.4, continuously bubbled with ‘carbogen’ (95% O2/5% CO2) and maintained at room temperature. […]
Extracelular action potentials were recorded from either isolated neurones, or several neurones per electrode. […]
All spike waveforms or LFP ‘events’ that crossed a pre-set voltage threshold (−12 and −8 pV respectively) were stored as both ‘time-stamps’ (i.e. ‘time of occurrence’), and as ‘spike cut-outs’ (i.e. digitised waveform prior to, and after threshold crossing). All experimental data were recorded directly on to hard disk, and backed up onto various means of data archiving. […]

[1] = system: olfactory bulb mitral cells; assay: Acute in vivo MEA recording of odour response in olfactory bulb; set-up: species or system male Wistar rats; conditions: odour at 5.42×10^−6 M in breathing air, urethane anaesthesia
From the text: Multi-electrode array recordings from olfactory bulb mitral cells (5×5 array). 1. Spontaneous population burst. 2. Control, no odour. 3. Arnyl acetate. 4. N-butanol. 5. Cineole. 6. Pinene. 7. DL-Camphor. 8. Linalool (max response). 9. Linalool “off response”. […] The results are shown as peak odour response neuronal activity maps in olfactory bulb. These records were from male Wistar rats (400 g) anaesthetized with urethane and secured in a stereotaxic unit). The NeuroZonds MEAs of the invention penetrated the left olfactory bulbs horizontally (after left enucleation). The odours were presented in the animals breathing air under the control of the normal breathing cycle (detected by thermistor probe in mask), diluted from stock in pure nitrogen. The concentrations of odourants were determined according to the relative saturation vapour pressures of the odourants at particular temperatures via a custom-built ‘olfactometer’.

## O=C1c2ccccc2C(Cc2ccncc2)(Cc2ccncc2)c2ccccc21 [XE-991]
Rat dorsal raphe
  neuronal firing, effect of XE-991 after retigabine: recovery of retigabine inhibition

## pinene
[1]
  spatiotemporal dynamics of odour response: marked “off response”
